{
  "source": "patent US10851112B2",
  "about": "“Anti-HCMV virus compound” (MEDSHINE DISCOVERY INC., priority 2016, dated 2020)",
  "data": [
    {"test_system": "US3-6-EGFP-HCMV-AD169 viruses", "test": "Fluorescence decay assay against human cytomegalovirus", "assay_type": "cell-based, human cytomegalovirus (HCMV)", "settings": "Human betaherpesvirus 5, AD169, MRC5, 240 h", "method": "Fluorescence Decay Assay Against Human Cytomegalovirus\nThe antiviral activity of the compound against human cytomegalovirus (HCMV) was evaluated by determining the half maximal effective concentration (EC50) of the compound. The HCMV used in this assay was inserted with enhanced green fluorescent protein (EGFP) by gene recombination, so the viral replication in cells could be reflected by the expression level of GFP. The inhibitory activity of the compound on HCMV GFP expression was evaluated by determining the fluorescence intensity in the wells of different concentrations of the compound using a high content cell analysis platform Acumen eX3.\nFluorescence Decay Assay Against HCMV\nMRC5 cells were inoculated into a black 96-well cell culture plate at a density of 20,000 cells per well. The plate was incubated overnight in a 37° C., 5% CO2 incubator. US3-6-EGFP-HCMV-AD169 viruses were added to the cell culture well at a certain MOI (0.003-0.1) and the plate was incubated for 3 hours in a 37° C., 5% CO2 incubator. After adsorption of viruses, the medium containing viruses was aspirated and 200 μL of cell culture medium containing different concentrations of the compound (4-fold dilution, 6 test concentrations) was added. The final concentration of DMSO in the medium was 1%. Virus control wells (with DMSO added, but no compound was added) and inhibition control wells (with a high concentration of control compound added) were set. The cell plate was incubated for 10 days in a 37° C., 5% CO2 incubator and the liquid was renewed on the 4th day and 7th day. After 10 days of culture, the fluorescence intensity was determined using a high content cell analysis platform Acumen eX3 (TTP LabTech). The original data was used for calculating the antiviral activity of the compound.\nThe inhibition % was imported into GraphPad Prism software for data processing to give a corresponding dose-response curve for the compound and the EC50 of the test compound was obtained.", "units": {"EC50": "nM"}, "values": [
      {"smiles": "COc1cc(N2CCN(C3=Nc4ccsc4[C@@H](CC(=O)O)N3c3cc(C(F)(F)F)ccc3OC)C[C@H]2C)ccc1F", "note": "(single isomer, unassigned) [WX-200]", "EC50": "> 10"},
      {"smiles": "COc1cc(N2CCN(C3=Nc4c(csc4F)[C@@H](CC(=O)O)N3c3cc(C(F)(F)F)ccc3OC)C[C@H]2C)ccn1", "note": "(single isomer, unassigned) [WX-148]", "EC50": 12},
      {"smiles": "COc1cccc(N2CCN(C3=Nc4cc(Cl)sc4[C@H](CC(=O)O)N3c3cc(C(F)(F)F)ccc3OC)CC2)c1", "note": "(single isomer, unassigned) [WX-107]", "EC50": 4},
      {"smiles": "COc1cc(N2CCN(C3=Nc4c(csc4F)[C@@H](CC(=O)O)N3c3cc(C(F)(F)F)ccc3OC)CC2)ccn1", "note": "(single isomer, unassigned) [WX-098]", "EC50": 31},
      {"smiles": "COc1cc(N2[C@H](C)CN(C3=Nc4ccsc4[C@H](CC(=O)O)N3c3cc(C(F)(F)F)ccc3OC)C[C@H]2C)ccn1", "note": "(single isomer, unassigned) [WX-196]", "EC50": 1.91},
      {"smiles": "COc1cc(N2[C@H](C)CN(C3=Nc4ccsc4[C@@H](CC(=O)O)N3c3cc(C(F)(F)F)ccc3OC)C[C@@H]2C)ccn1", "note": "(single isomer, unassigned) [WX-160]", "EC50": 44.4},
      {"smiles": "COc1cccc(N2CCN(C3=Nc4ccsc4[C@@H](CC(=O)O)N3c3cc(C(F)(F)F)ccc3OC)C[C@H]2C)c1", "note": "(single isomer, unassigned) [WX-135]", "EC50": 941},
      {"smiles": "COc1cccc(N2CCN(C3=Nc4cscc4[C@@H](CC(=O)O)N3c3cc(C(F)(F)F)ccc3OC)C[C@H]2C)c1", "note": "(single isomer, unassigned) [WX-203]", "EC50": "> 10"},
      {"smiles": "COc1ccnc(N2CCN(C3=Nc4c(csc4F)[C@@H](CC(=O)O)N3c3cc(C(F)(F)F)ccc3OC)C[C@H]2C)n1", "note": "(single isomer, unassigned) [WX-130]", "EC50": "> 100"},
      {"smiles": "COc1ccnc(N2CCN(C3=Nc4c(csc4F)[C@H](CC(=O)O)N3c3cc(C(F)(F)F)ccc3OC)C[C@H]2C)n1", "note": "(single isomer, unassigned) [WX-129]", "EC50": 14},
      {"smiles": "COc1cncc(N2CCN(C3=Nc4c(csc4F)[C@H](CC(=O)O)N3c3cc(C(F)(F)F)ccc3OC)C[C@H]2C)c1", "note": "(single isomer, unassigned) [WX-133]", "EC50": 17},
      {"smiles": "COc1cc(N2CCN(C3=Nc4ccsc4[C@@H](CC(=O)O)N3c3cc(C(F)(F)F)ccc3OC)C[C@H]2C)ncn1", "note": "(single isomer, unassigned) [WX-144]", "EC50": 261},
      {"smiles": "COc1cccc(N2CCN(C3=Nc4ccsc4[C@H](CC(=O)O)N3c3cc(C(F)(F)F)ccc3OC)C[C@H]2CF)c1", "note": "(single isomer, unassigned) [WX-172]", "EC50": 0.099},
      {"smiles": "COc1ccc(C(F)(F)F)cc1N1C(N2CCC(F)(c3ccc(F)cc3)CC2)=Nc2ccsc2[C@H]1CC(=O)O", "note": "(single isomer, unassigned) [WX-089]", "EC50": "> 1000"},
      {"smiles": "COc1cccc(N2CCN(C3=Nc4ccsc4[C@@H](CC(=O)O)N3c3cc(C(F)(F)F)ccc3OC)CC2)c1", "note": "(single isomer, unassigned) [WX-087]", "EC50": "> 1000"},
      {"smiles": "COc1cccc(N2CCN(C3=Nc4c(csc4F)[C@H](CC(=O)O)N3c3cc(C(F)(F)F)ccc3OC)CC2)c1", "note": "(single isomer, unassigned) [WX-076]", "EC50": 1},
      {"smiles": "COc1cncc(N2CCN(C3=Nc4ccsc4[C@@H](CC(=O)O)N3c3cc(C(F)(F)F)ccc3OC)C[C@H]2C)c1", "note": "(single isomer, unassigned) [WX-138]", "EC50": "> 1000"},
      {"smiles": "COc1ccc(C(F)(F)F)cc1N1C(N2CCC(F)(c3ccc(F)cc3)CC2)=Nc2ccsc2[C@@H]1CC(=O)O", "note": "(single isomer, unassigned) [WX-090]", "EC50": 79},
      {"smiles": "COc1cc(N2CCN(C3=Nc4c(csc4F)[C@H](CC(=O)O)N3c3cc(C(F)(F)F)ccc3OC)CC2)ccn1", "note": "(single isomer, unassigned) [WX-097]", "EC50": 1},
      {"smiles": "CC[C@@H]1CN(C2=Nc3ccsc3[C@H](CC(=O)O)N2c2cc(C(F)(F)F)ccc2OC)CCN1c1cccc(OC)c1", "note": "(single isomer, unassigned) [WX-170]", "EC50": 0.264},
      {"smiles": "CC[C@@H]1CN(C2=Nc3ccsc3[C@@H](CC(=O)O)N2c2cc(C(F)(F)F)ccc2OC)CCN1c1cccc(OC)c1", "note": "(single isomer, unassigned) [WX-169]", "EC50": "> 538"},
      {"smiles": "COc1cc(N2CCN(C3=Nc4ccsc4[C@@H](CC(=O)O)N3c3cc(C(F)(F)F)ccc3OC)CC2)ccn1", "note": "(single isomer, unassigned) [WX-108]", "EC50": 340},
      {"smiles": "COc1cccc(N2CCN(C3=Nc4cc(Cl)sc4[C@@H](CC(=O)O)N3c3cc(C(F)(F)F)ccc3OC)CC2)c1", "note": "(single isomer, unassigned) [WX-106]", "EC50": "> 1000"},
      {"smiles": "COc1cncc(N2CCN(C3=Nc4ccsc4[C@H](CC(=O)O)N3c3cc(C(F)(F)F)ccc3OC)C[C@H]2C)c1", "note": "(single isomer, unassigned) [WX-137]", "EC50": 31},
      {"smiles": "COc1cc(N2[C@H](C)CN(C3=Nc4ccsc4[C@@H](CC(=O)O)N3c3cc(C(F)(F)F)ccc3OC)C[C@H]2C)ccn1", "note": "(single isomer, unassigned) [WX-197]", "EC50": "> 10"},
      {"smiles": "COc1cccc(N2CCN(C3=Nc4c(csc4F)[C@@H](CC(=O)O)N3c3cc(C(F)(F)F)ccc3OC)CC2)c1", "note": "(single isomer, unassigned) [WX-075]", "EC50": 295},
      {"smiles": "COc1cc(N2[C@H](C)CN(C3=Nc4cscc4[C@H](CC(=O)O)N3c3cc(C(F)(F)F)ccc3OC)C[C@@H]2C)ccn1", "note": "(single isomer, unassigned) [WX-198]", "EC50": 0.713},
      {"smiles": "COc1ccnc(N2CCN(C3=Nc4c(csc4F)[C@@H](CC(=O)O)N3c3cc(C(F)(F)F)ccc3OC)C[C@H]2C)c1", "note": "(single isomer, unassigned) [WX-146]", "EC50": 352},
      {"smiles": "COc1cc(N2CCN(C3=Nc4cc(C)sc4[C@@H](CC(=O)O)N3c3cc(C(F)(F)F)ccc3OC)C[C@H]2C)ccn1", "note": "(single isomer, unassigned) [WX-174]", "EC50": "> 10"},
      {"smiles": "COc1ccnc(N2CCN(C3=Nc4ccsc4[C@@H](CC(=O)O)N3c3cc(C(F)(F)F)ccc3OC)C[C@H]2C)c1", "note": "(single isomer, unassigned) [WX-140]", "EC50": 144},
      {"smiles": "COc1ccc(C(F)(F)F)cc1N1C(N2CCC(F)(c3ccc(F)cc3)CC2)=Nc2c(csc2F)[C@H]1CC(=O)O", "note": "(single isomer, unassigned) [WX-100]", "EC50": 73},
      {"smiles": "COc1cc(N2CCN(C3=Nc4ccsc4[C@H](CC(=O)O)N3c3cc(C(F)(F)F)ccc3OC)C[C@H]2C)ccc1F", "note": "(single isomer, unassigned) [WX-201]", "EC50": 0.53},
      {"smiles": "COc1cccc(N2CCN(C3=Nc4ccsc4[C@@H](CC(=O)O)N3c3cc(C(F)(F)F)ccc3OC)C[C@H]2CF)c1", "note": "(single isomer, unassigned) [WX-171]", "EC50": "> 10"},
      {"smiles": "COc1ccc(C(F)(F)F)cc1N1C(N2CCN(c3ccc(F)cc3)CC2)=Nc2c(csc2F)[C@H]1CC(=O)O", "note": "(single isomer, unassigned) [WX-113]", "EC50": 107},
      {"smiles": "COc1cc(N2CCN(C3=Nc4cc(C)sc4[C@H](CC(=O)O)N3c3cc(C(F)(F)F)ccc3OC)C[C@H]2C)ccn1", "note": "(single isomer, unassigned) [WX-173]", "EC50": 0.849},
      {"smiles": "COc1cc(N2[C@H](C)CN(C3=Nc4cscc4[C@@H](CC(=O)O)N3c3cc(C(F)(F)F)ccc3OC)C[C@@H]2C)ccn1", "note": "(single isomer, unassigned) [WX-199]", "EC50": "> 10"},
      {"smiles": "COc1cncc(N2CCN(C3=Nc4c(csc4F)[C@@H](CC(=O)O)N3c3cc(C(F)(F)F)ccc3OC)C[C@H]2C)c1", "note": "(single isomer, unassigned) [WX-134]", "EC50": "> 1000"},
      {"smiles": "COc1cc(N2CCN(C3=Nc4ccsc4[C@@H](CC(=O)O)N3c3cc(C(F)(F)F)ccc3OC)C[C@H]2C)ccn1", "note": "(single isomer, unassigned) [WX-142]", "EC50": 56}
    ]}
  ]
}
